Laboratory results from paper PMC10053440, “Semi-Synthesis and Biological Evaluation of 25(R)-26-Acetoxy-3β,5α-Dihydroxycholest-6-One” (Marine Drugs, 2023).

Assays:
[1] = tested on: MKN-45 (human gastric cancer cell); test: CCK-8 anti-proliferation assay, MKN-45; type: cell-based; conditions: 48 h, mean ± SEM, read-out: Inhibition Rate (%)
Protocol: (§1) One concentration was set for each sample during preliminary screening and three multiple holes were set for each concentration. Eight concentration gradients were set for each sample for IC50 determination and three multiple holes were set for each concentration. […] The absorbance was measured at 450 nm with an enzyme labeling instrument and the original data and results were recorded. […] Doxorubicin was used as a positive control. All the cancer cell lines were obtained from Qingdao AC biotechnology Co., LTD, Qingdao, China.

[2] = tested on: HOS (human osteosarcoma cell); test: CCK-8 anti-proliferation assay, HOS; type: cell-based; conditions: 48 h, mean ± SEM, read-out: Inhibition Rate (%)
Protocol: as §1

[3] = tested on: GBC-SD (human gallbladder carcinoma cell); test: CCK-8 anti-proliferation assay, GBC-SD; type: cell-based; conditions: 48 h, mean ± SEM, read-out: Inhibition Rate (%)
Protocol: as §1

[4] = tested on: MCF7 (human breast cancer cell); test: CCK-8 anti-proliferation assay, MCF7; type: cell-based; conditions: 48 h, mean ± SEM, read-out: Inhibition Rate (%)
Protocol: as §1

[5] = tested on: DU145 (human prostate carcinoma cell); test: CCK-8 anti-proliferation assay, DU145; type: cell-based; conditions: 48 h, mean ± SEM, read-out: Inhibition Rate (%)
Protocol: as §1

[6] = tested on: 786-O (human renal cancer cell); test: CCK-8 anti-proliferation assay, 786-O; type: cell-based; conditions: 48 h, mean ± SEM, read-out: Inhibition Rate (%)
Protocol: as §1

[7] = tested on: HCT 116 (human colorectal cancer cell); test: CCK-8 anti-proliferation assay, HCT 116; type: cell-based; conditions: 48 h, mean ± SEM, read-out: Inhibition Rate (%)
Protocol: as §1

[8] = tested on: L-02 (human hepatocyte cell); test: CCK-8 anti-proliferation assay, L-02; type: cell-based; conditions: L-02 normal liver cells, 48 h, mean ± SEM, read-out: Inhibition Rate (%)
Protocol: as §1

[9] = tested on: A-375 (human melanoma cell); test: CCK-8 anti-proliferation assay, A-375; type: cell-based; conditions: 48 h, mean ± SEM, read-out: Inhibition Rate (%)
Protocol: as §1

[10] = tested on: 5637 (HTB-9) (human bladder cancer cell); test: CCK-8 anti-proliferation assay, 5637 (HTB-9); type: cell-based; conditions: 5637 (HTB-9), 48 h, mean ± SEM, read-out: Inhibition Rate (%)
Protocol: as §1

[11] = tested on: PATU8988T (human pancreatic cancer cell); test: CCK-8 anti-proliferation assay, PATU8988T; type: cell-based; conditions: PaTu 8988t, 48 h, mean ± SEM, read-out: Inhibition Rate (%)
Protocol: as §1

[12] = tested on: SF126 (human glioblastoma cell); test: CCK-8 anti-proliferation assay, SF126; type: cell-based; conditions: 48 h, mean ± SEM, read-out: Inhibition Rate (%)
Protocol: as §1

[13] = tested on: HeLa (human cervical cancer cell); test: CCK-8 anti-proliferation assay, HeLa; type: cell-based; conditions: 48 h, mean ± SEM, read-out: Inhibition Rate (%)
Protocol: as §1

[14] = tested on: K-562 (human myeloid leukemia cell); test: CCK-8 anti-proliferation assay, K-562; type: cell-based; conditions: 48 h, mean ± SEM
Protocol: as §1

[15] = tested on: 293T (human embryonic kidney cell); test: CCK-8 anti-proliferation assay, 293T; type: cell-based; conditions: HEK-293T, 48 h, mean ± SEM, read-out: Inhibition Rate (%)
Protocol: as §1

[16] = tested on: A549 (human lung adenocarcinoma cell); test: CCK-8 anti-proliferation assay, A549; type: cell-based; conditions: A549, 48 h, at 10 µM, mean ± SEM, read-out: Inhibition Rate (%)
Protocol: as §1

[17] = tested on: A-673 (Ewing sarcoma); test: CCK-8 anti-proliferation assay, A-673; type: cell-based; conditions: Homo sapiens, 48 h, mean ± SEM, read-out: Inhibition Rate (%)
Protocol: as §1

[18] = tested on: CAL-62 (human thyroid anaplastic carcinoma cell); test: CCK-8 anti-proliferation assay, CAL-62; type: cell-based; conditions: 48 h, mean ± SEM, read-out: Inhibition Rate (%)
Protocol: as §1

[19] = tested on: HepG2 (human liver carcinoma cell); test: CCK-8 anti-proliferation assay, HepG2; type: cell-based; conditions: 48 h, mean ± SEM, read-out: Inhibition Rate (%)
Protocol: as §1

[20] = tested on: TE-1 (human esophageal cancer cell); test: CCK-8 anti-proliferation assay, TE-1; type: cell-based; conditions: 48 h, mean ± SEM, read-out: Inhibition Rate (%)
Protocol: as §1

[21] = tested on: respiratory syncytial virus (RSV); test: Anti-RSV activity assay (RT-qPCR); type: cell-based; conditions: human respiratory syncytial virus, HEp-2 cells, mean ± SEM, read-out: Inhibition rate (%) of RSV replication
Description: Remdesivir was selected and evaluated as a positive control.

[22] = tested on: respiratory syncytial virus (RSV); parameters: method as in PMID 24882250; conditions: read-out: anti-RSV IC50; cited from earlier work

For COc1cccc2c1C(=O)c1c(O)c3c(c(O)c1C2=O)C[C@@](O)(C(=O)CO)C[C@@H]3O[C@H]1C[C@H](N)[C@H](O)[C@H](C)O1 [Doxorubicin, reference compound], the inhibition at 10 µM ([1]; at 10 µM) was 89.8 ± 0.5%, the inhibition at 10 µM ([2]; at 10 µM) was 98.4 ± 0.9% and the inhibition at 10 µM ([3]; at 10 µM) was 76.7 ± 1.5%. The inhibition at 10 µM ([4]; at 10 µM) was 55.9 ± 1.7%, the inhibition at 10 µM ([5]; DU-145, at 10 µM) was 76.4 ± 1.6% and the inhibition at 10 µM ([6]; 786-0, at 10 µM) was 86.3 ± 1.9%. For the same compound, the inhibition at 10 µM ([7]; at 10 µM) was 88.9 ± 1.5%, the inhibition at 10 µM ([8]; at 10 µM) was 99.2 ± 0.1% and the inhibition at 10 µM ([9]; at 10 µM) was 95.3 ± 1%. The inhibition at 10 µM ([10]; at 10 µM) was 99.3 ± 0.3%, the inhibition at 10 µM ([11]; at 10 µM) was 98.4 ± 0.6% and the inhibition at 10 µM ([12]; SF-126, at 10 µM) was 97.1 ± 1%. For the same compound, the inhibition at 10 µM ([13]; at 10 µM) was 97.7 ± 0.4%, the inhibition at 10 µM ([14]; Homo sapiens, K562, at 10 µM, read-out: Inhibition Rate (%)) was 67.5 ± 1% and the inhibition at 10 µM ([15]; at 10 µM) was 88.2 ± 1.2%. For the same compound, the inhibition at 10 µM [16] was 75.9 ± 2.5%, the inhibition at 10 µM ([17]; A673, at 10 µM) was 98.7 ± 0.6% and the inhibition at 10 µM ([18]; at 10 µM) was 92.6 ± 1.3%. It also gave an inhibition at 10 µM ([19]; at 10 µM) of 95.9 ± 1.9% and an inhibition at 10 µM ([20]; at 10 µM) of 83.3 ± 1.1%.

Work on CC(=O)OC[C@H](C)CCC[C@@H](C)[C@H]1CC[C@H]2[C@@H]3C[C@@H](O)[C@@]4(O)C[C@@H](O)CC[C@]4(C)[C@H]3CC[C@]12C [compound 13, (2R,6R)-2-Methyl-6-((3S,5R,6R,8S,9S,10R,13R,14S,17R)-3,5,6-Trihydroxy-10,13-Dimethylhexadecahydro-1H-Cyclopenta[a]Phenanthren-17-yl) Heptyl Acetate] yielded an inhibition at 20 µM ([1]; at 20 µM) of 52.7 ± 2.4%, an inhibition at 20 µM ([2]; at 20 µM) of 52.6 ± 1.5% and an inhibition at 20 µM ([3]; at 20 µM) of 6 ± 2.4%. The inhibition at 20 µM ([4]; at 20 µM) was 19 ± 1.1%, the inhibition at 20 µM ([5]; DU-145, at 20 µM) was -0.4 ± 3.9% and the inhibition at 20 µM ([6]; 786-0, at 20 µM) was 20.5 ± 1.3%. The inhibition at 20 µM ([7]; at 20 µM) was 19.3 ± 1.2%, the inhibition at 20 µM ([8]; at 20 µM) was 6.3 ± 3.2% and the inhibition at 20 µM ([9]; at 20 µM) was 54.8 ± 1.7%. The inhibition at 20 µM ([10]; at 20 µM) was 52.2 ± 4.5%, the melting point was 201 to 202 °C and the inhibition at 20 µM ([11]; at 20 µM) was 53.6 ± 1.7%. The inhibition at 20 µM ([12]; SF-126, at 20 µM) was 4.7 ± 1.3%, the inhibition at 20 µM ([13]; at 20 µM) was -2.3 ± 1.7% and the inhibition at 20 µM ([14]; Homo sapiens, K562, at 20 µM, read-out: Inhibition Rate (%)) was 7.8 ± 2.3%. The “Inhibition Rate (%)” value ([14]; at 20 µM) was “did not exhibit any anti-proliferative activities”, the inhibition at 20 µM ([15]; at 20 µM) was 37.3 ± 2.7% and the inhibition at 10 µM [21] was 13.6 ± 2.1%. For the same compound, the inhibition at 20 µM ([17]; A673, at 20 µM) was 66.3 ± 3.2%, the inhibition at 20 µM ([18]; at 20 µM) was 7.5 ± 2.7% and the inhibition at 20 µM ([19]; at 20 µM) was 58 ± 1.2%. It also gave an inhibition at 20 µM ([20]; at 20 µM) of 13.5 ± 2.6%.

With CCC(CC)COC(=O)[C@H](C)N[P@](=O)(OC[C@H]1O[C@@](C#N)(c2ccc3c(N)ncnn23)[C@H](O)[C@@H]1O)Oc1ccccc1 [Remdesivir, reference compound] the inhibition at 10 µM [21] was 91.8 ± 0.5%.

In the case of CC(=O)OC[C@H](C)[C@H](C)/C=C/[C@@H](C)[C@H]1CC[C@H]2[C@@H]3CC(=O)[C@@]4(O)C[C@@H](O)CC[C@]4(C)[C@H]3CC[C@]12C [compound 3], the IC50 [22] is given as 190 nM.

In the case of CC(=O)OC[C@@H](C)C/C=C/[C@@H](C)[C@H]1CC[C@H]2[C@@H]3CC(=O)[C@@]4(O)C[C@@H](O)CC[C@]4(C)[C@H]3CC[C@]12C [compound 1], the IC50 [22] is listed as 780 nM.
